Publication PMC9053583, “A novel series of phenolic temozolomide (TMZ) esters with 4 to 5-fold increased potency, compared to TMZ, against glioma cells irrespective of MGMT expression” (RSC Advances, 2020)
Read-outs that look alike come from different tables or passages of the source.

Key:
U87-MG cells = assay: CellTiter-Glo cytotoxicity against U87-MG cells; type: cell-based; conditions: Homo sapiens, U-87 MG, 144 hours incubation, IC50 ± SD (n = 3)
Procedure: (§1) Apoptosis of glioma cells induced by TMZ, occurs at least 120 hours after treatment.[7] Consequently, cells were incubated for 144 hours with specified TMZ analogues in the in vitro investigations in order to obtain more reliable IC50 values.
(§2) 1321-N1 (human astrocytoma) was maintained in DMEM medium supplemented with 2 mM L-glutamine and 10% FBS. GOS-3, (human brain mixed astro-oligodendroglioma) was maintained in DMEM medium supplemented with 2 mM L-glutamine and 10% […]. U87-MG, (human glioblastoma) and SVGp12 (normal human astroglia) were maintained in EMEM medium supplemented with 2 mM L-glutamine, 1 mM sodium pyruvate and 10% FBS. All cell lines were incubated at 37 °C and 5% CO2 in a humidified incubator. Primary BTNW cultures were maintained in Ham's F10 nutrient mixture, containing 20 mM HEPES, 2 mM glutamine and 10% FBS. Primary cultures were incubated in a humidified incubator at 37 °C.
(§3) Cells were seeded in the appropriate media in each well of a Costar 96-well plate at a density of 5 × 10^2 immortalised cells; 2 × 10^3 (primary cells). The plates were incubated at 37 °C and 5% CO2 in a humidified incubator for 24 hours to allow cells to adhere. Each of the drugs tested were dissolved in DMSO to afford a 200 mM stock solution. The stock solutions were diluted with medium to afford the final working concentrations, ensuring DMSO concentration was no greater than 0.5% (v/v). Drug concentrations were added to the cells and incubated for 144 hours. After incubation, the drug concentrations were removed and replaced with 100 μL of CellTiter-Glo® and 100 μL of media. The luminescence of each well was measured on GENios Pro plate reader. The results for each of the drug concentrations were expressed as a percentage of the control wells. For cell lines, the regression equation for a polynomial line of best fit of order 2 was used to calculate the IC50. In the case of the in vitro model used in the present study, the IC50 was defined as the concentration of drug that results in a 50% reduction in oxyluciferin production. Primary culture cells were incubated with clinically relevant concentrations for 144 hours. Viability was expressed as a percentage of the control wells. Each experiment involving cell lines was carried out in triplicate of triplicates. Experiments using patient derived primary cultures were carried out in triplicate.
(§4) Initial screening of the 25 analogues was completed using the U87-MG cell line. The most promising analogues from the initial screening were taken forward and tested against the 1321-N1, GOS-3 and SVG-p12 cell lines. The results of all 4 cell lines were compiled and the analogues that were deemed to be the most promising drug candidates were tested against primary cultures at clinically relevant concentrations.

1321-N1 = assay: CellTiter-Glo cytotoxicity against 1321-N1 cells; type: cell-based; conditions: Homo sapiens, 144 hours incubation, IC50 ± SD (n = 3)
Procedure: as §1, §2, §3, §4

GOS-3 = assay: CellTiter-Glo cytotoxicity against GOS-3 cells; type: cell-based; conditions: Homo sapiens; 144 hours incubation, IC50 ± SD (n = 3)
Procedure: as §1, §2, §3, §4

SVGp12 = assay: CellTiter-Glo cytotoxicity against normal SVGp12 cell line; type: cell-based; conditions: Homo sapiens, 144 hours incubation, IC50 ± SD (n = 3)
Procedure: as §1, §2, §3, §4

BTNW914 (MGMT−) = assay: Cell viability of patient derived primary GBM culture BTNW914 (MGMT−); type: cell-based, human; conditions: 6 days incubation; for IC50: Homo sapiens, 144 h, read-out: IC50 against MGMT devoid GBM primary cells; for reduction in viability against MGMT devoid GBM cells: at 75 μM
Procedure: (§5) Fig. 2 (A) Cell viability of BTNW914 (MGMT−) after treatment by TMZ and phenyl TMZ ester analogues at various clinically relevant concentrations and incubation for 6 days. (B) Cell Viability of BTNW374 (MGMT+) after treatment by TMZ and phenyl TMZ ester analogues at various clinically relevant concentrations. Values are reported as the percentage of viable cells ± SD, n = 3.
(§6) Cytotoxic evaluation of the analogues was completed against 4 cell lines and 2 primary GBM cultures. The human glioma cell lines, GOS-3, U87-MG and 1321-N1 along with the human astroglial cell line, SVGp12, were purchased from The European Collection of Cell Cultures (ECCAC, UK) and Deutsche Sammlung von Mikroorganismen und Zellkulturen (DMSZ, Germany). Patient derived primary GBM cultures, BTNW374 and BTNW914, were obtained from The Brain Tumour North West Tissue Bank in collaboration with The Royal Preston Hospital. Patient data for primary cells was included as part of the ESI. ^†
as §2, §3

BTNW374 (MGMT+) = assay: Cell viability of patient derived primary GBM culture BTNW374 (MGMT+); type: cell-based, human
Procedure: as §5, §6, §2, §3

[1] = cited from earlier work
[2] = Solubility in cell culture medium; type: physicochemical
Procedure: The maximum concentration that could be achieved in medium for amide analogues 4a and 4c was approximately 200 μM, at which IC50 values could not be generated and were also eliminated from further studies.
as §3

[3] = system: porcine liver esterase (PLE); assay: Stability of phenolic TMZ esters on exposure to porcine liver esterase; type: in vitro ADME; conditions: pH 6, 37 °C
Procedure: The hydrolysis was monitored by the decrease in the peak area of the corresponding TMZ esters, however, due to sensitivity of the imidazotetrazine ring to pH, the experiments were carried out at pH 6 to avoid the formation of imidazoles. The validation of the analytical method also involved investigating the stability of the imidazotetrazine ring whilst ensuring PLE retained a significant level of activity.
A disodium phosphate, citric acid buffer (pH 6) was prepared by using disodium phosphate (Na2HPO4·12H2O, 200 mM) and citric acid (100 mM). A stock solution of 80 mg/100 mL of each of the TMZ esters (3h, 3i, 3j, 3k, 3l and 3n) were prepared in DMSO. The control reaction, without enzyme, was prepared by adding 3000 μL of buffer to the reaction vessel along with 56.25 μL of the stock solution. The test reaction, with enzyme, was prepared by adding 2999 μL of buffer to the reaction vessel along with 56.25 μL of TMZ ester. The final concentration of TMZ esters in the reaction vessels was 1.47 mg/100 mL. Porcine liver esterase (1 μL) was added to the test reaction at zero time (minutes). Both the control and test reactions were then incubated at 37 °C. Aliquots of 200 μL were transferred from the reaction vessels to 2 mL Eppendorf tubes, at 3 minute intervals for 30 minutes. The reaction was quenched by adding 200 μL of acetonitrile. […]

[4] = initial screening, CellTiter-Glo, read-out: IC50 against U87-MG cells
[5] = lead analogues (Table 2), read-out: IC50 U87-MG

| SMILES | IC50 (U87-MG cells; [4]) | IC50 (U87-MG cells; [5]) | IC50 (1321-N1) | IC50 (GOS-3) | IC50 (SVGp12) | reduction of viability of MGMT devoid cells (BTNW914 (MGMT−); at 15 and 75 μM) | cytotoxicity against MGMT positive patient derived primary culture (BTNW374 (MGMT+); BTNW374, clinically relevant concentrations up to 75 μM) | brain-tumour concentration [1] | brain-tumour concentration as share of plasma concentration [1] | time frame of maximum intracranial concentration [1] | IC50 (BTNW914 (MGMT−)) | cytotoxicity against MGMT positive patient derived primary culture (BTNW374 (MGMT+); human, 144 h, 75 μM) | melting point | solubility in cell culture medium [2] | Time taken to hydrolyse 50% of the ester [3] | reduction in viability against MGMT devoid GBM cells (BTNW914 (MGMT−)) | maximum concentration that could be achieved in medium [2] |
| --- | --- | --- | --- | --- | --- | --- | --- | --- | --- | --- | --- | --- | --- | --- | --- | --- | --- |
| Cn1nnc2c(C(=O)O)ncn2c1=O [TMZ acid, 3-methyl-4-oxo-3,4-dihydroimidazo[5,1-d][1,2,3,5]tetrazine-8-carboxylic acid] | 662 ± 42 µM | 662 ± 42 µM | 596 ± 26 µM | 504 ± 30 µM | 316 ± 2 µM |  |  |  |  |  |  |  |  |  |  |  |  |
| Cn1nnc2c(C(N)=O)ncn2c1=O [TMZ, 3-methyl-4-oxo-imidazo[5,1-d][1,2,3,5]tetrazine-8-carboxamide, reference compound] | 696 ± 79 µM | 621 ± 66 µM | 783 ± 40 µM | 696 ± 16 µM | 239 ± 6 µM | approximately 20% | TMZ resistance | 15 µM | approximately 20% | approximately 2 ± 0.8 hours |  |  |  |  |  |  |  |
| Cn1nnc2c(C(=O)Oc3ccc(Cl)cc3)ncn2c1=O [Analogue 3j, 4-Chlorophenyl 3-methyl-4-oxo-3,4-dihydroimidazo [5,1-d][1,2,3,5] tetrazine-8-carboxylate] | 96 ± 3 µM | 96 ± 3 µM | 118 ± 11 µM | 54 ± 4 µM | 33 ± 1 µM |  |  |  |  |  | < 15 µM | generated cytotoxicity at 75 μM | 164 °C |  |  |  |  |
| Cn1nnc2c(C(=O)Oc3ccc([N+](=O)[O-])cc3)ncn2c1=O [Analogue 3i, 4-Nitrophenyl 3-methyl-4-oxo-3,4-dihydroimidazo [5,1-d][1,2,3,5] tetrazine-8-carboxylate] | 142 ± 3 µM | 141 ± 3 µM | 104 ± 4 µM | 91 ± 1 µM | 39 ± 2 µM |  |  |  |  |  | < 15 µM | generated cytotoxicity at 75 μM | 190 °C |  |  |  |  |
| CCCCCCOC(=O)c1ncn2c(=O)n(C)nnc12 [Analogue 3b, Hexyl 3-methyl-4-oxo-3,4-dihydroimidazo[5,1-d][1,2,3,5]tetrazine-8-carboxylate] | 409 ± 45 µM | 409 ± 45 µM | 269 ± 20 µM | 269 ± 6 µM | 182 ± 11 µM |  |  |  |  |  |  |  | 76 °C |  |  |  |  |
| Cn1nnc2c(C(=O)NCc3ccc(Cl)cc3)ncn2c1=O [Analogue 4k, N-(4-Chlorobenzyl)-3-methyl-4-oxo-3,4-dihydroimidazo[5,1-d][1,2,3,5]tetrazine-8-carboxamide] |  | 138 ± 28 µM | > 200 µM | > 200 µM | 79 ± 6 µM |  |  |  |  |  |  |  | 148 °C | insoluble |  |  |  |
| COc1ccc(OC(=O)c2ncn3c(=O)n(C)nnc23)cc1 [Analogue 3h, 4-Methoxyphenyl 3-methyl-4-oxo-3,4-dihydroimidazo [5,1-d][1,2,3,5] tetrazine-8-carboxylate] | 134 ± 7 µM | 134 ± 7 µM | 183 ± 1 µM | 183 ± 5 µM | 44 ± 2 µM |  |  |  |  |  | < 15 µM | generated cytotoxicity at 75 μM | 172 °C |  | 7.3 min |  |  |
| Cn1nnc2c(C(=O)Oc3ccccc3)ncn2c1=O [Analogue 3l, Phenyl 3-methyl-4-oxo-3,4-dihydroimidazo[5,1-d][1,2,3,5]tetrazine-8-carboxylate] | 331 ± 47 µM | 330 ± 47 µM | 511 ± 10 µM | 691 ± 35 µM | 238 ± 6 µM |  |  |  |  |  |  |  | 149 °C |  |  | greater than 50% |  |
| Cn1nnc2c(C(=O)Nc3ccccc3)ncn2c1=O [Analogue 4c, 3-Methyl-4-oxo-N-phenyl-3,4-dihydroimidazo[5,1-d][1,2,3,5]tetrazine-8-carboxamide] | > 200 µM |  |  |  |  |  |  |  |  |  |  |  | 189 °C | insoluble |  |  | approximately 200 μM |
| CCCCCCNC(=O)c1ncn2c(=O)n(C)nnc12 [Analogue 4a, N-Hexyl-3-methyl-4-oxo-3,4-dihydroimidazo[5,1-d][1,2,3,5]tetrazine-8-carboxamide] | > 200 µM |  |  |  |  |  |  |  |  |  |  |  | 138 °C | insoluble |  |  | approximately 200 μM |
| Cc1ccc(OC(=O)c2ncn3c(=O)n(C)nnc23)cc1 [Analogue 3n, p-Tolyl 3-methyl-4-oxo-3,4-dihydroimidazo[5,1-d][1,2,3,5]tetrazine-8-carboxylate] | 376 ± 62 µM | 376 ± 62 µM | 238 ± 8 µM | 314 ± 38 µM | 215 ± 26 µM |  |  |  |  |  |  | generated cytotoxicity at 75 μM | 164 °C |  |  | greater than 50% |  |
| COc1ccccc1NC(=O)c1ncn2c(=O)n(C)nnc12 [Analogue 4h, N-(2-Methoxyphenyl)-3-methyl-4-oxo-3,4-dihydroimidazo[5,1-d][1,2,3,5]tetrazine-8-carboxamide] |  |  |  |  |  |  |  |  |  |  |  |  | 193 °C | insoluble |  |  |  |
